# Measurements from patent US9468212B2, “Antifungal compositions” (DSM IP ASSETS B.V., priority 2013, dated 2016).
# Several values for one entry are separate records, joined by “and”; a condition that tells them apart may be missing. Equal values may be shown once.
# Key:
# [1] = tested on: Penicillium italicum; assay: Treatment of oranges: wounded, inoculated with Penicillium italicum, wound treated with antifungal composition (Examples 7-9); format: in vivo; conditions: for Observed antifungal activity O (%) / Number of moulded oranges/total number of 8 oranges: oranges, 20° C.
# Experimental: The expected antifungal activity (E in %) of the combined antifungal composition comprising both active ingredients was calculated according to the Colby equation (Colby, 1967): E=X+Y−[(X·Y)/100] wherein X and Y are the observed antifungal activities (in %) of the individual active ingredients X and Y, respectively.
# Eight fresh, organic oranges were used per treatment. Each orange was soaked in a 180 ppm hypochlorite solution for 10 minutes, then rinsed thoroughly with fresh tap water and dried. The peel of each disinfected orange was wounded once using a cork borer according to the method described by de Lapeyre de Bellaire and Dubois (1987). Subsequently, each wound was inoculated with 10 μl of a Penicillium italicum suspension containing 5×10^5 of spores/ml. After incubation for 3 hours at 20° C., each wound and the orange peel area of 1 cm around the wound was treated with in total […] of a freshly prepared aqueous antifungal composition comprising either 500 ppm natamycin (DSM Food Specialties, Delft, The Netherlands), 300 ppm fludioxonil or both. Each antifungal composition also comprised 3.2% (w/w) beeswax, 0.8% (w/w) glycerol, 0.7% (w/w) polyoxyethylene sorbitan monostearate (Tween 60), 0.1% (w/w) polyoxyethylene sorbitan monooleate (Tween 80), 0.05% (w/w) methylhydroxyethyl-cellulose (MHEC), 0.03% (w/w) anti-foaming agent, 0.02% (w/w) xanthan gum, 0.02% (w/w) citric acid, 0.01% (w/w) lactic acid and 0.01% potassium sorbate. A composition without natamycin or fludioxonil was used as control.
# The treated oranges were incubated in a closed box in the dark at 20° C. and assessed on mould growth during a 27-day incubation period.
# (§1) The experiment was conducted as described in Example 7, except for the fact that each wounded and inoculated orange was treated with 150 μl of a freshly prepared aqueous antifungal composition comprising either 250 ppm natamycin (DSM Food Specialties, Delft, The Netherlands), 100 ppm fludioxonil or both. During incubation, the treated oranges were assessed on mould growth according to the two methods described in Example 5.
# as §1, with “500” for “250”, “400” for “100”, “fenpiclonil” for “fludioxonil”, “a 23-day incubation period,” for “incubation,”
# [2] = tested on: Botrytis cinerea; assay: Treatment of sweet peppers: wounded, inoculated with Botrytis cinerea, wound treated with antifungal composition (Example 10); format: in vivo; conditions: 400 ppm natamycin, 600 ppm fenpiclonil or both, 20° C.
# Experimental: Ten fresh, organic sweet peppers were used per treatment. The peel of each sweet pepper was wounded once using a cork borer according to the method described by de Lapeyre de Bellaire and Dubois (1987). Subsequently, each wound was inoculated with 10 μl of a Botrytis cinerea suspension containing 1×10^5 of spores/ml. After incubation for 3 hours at 20° C., each wound and the skin area of 0.5 cm around the wound was treated with in total 75 μl of a freshly prepared aqueous antifungal composition comprising either 400 ppm natamycin (DSM Food Specialties, Delft, The Netherlands), 600 ppm fenpiclonil or both. Each antifungal composition also comprised 3.2% (w/w) beeswax, 0.8% (w/w) glycerol, 0.7% (w/w) polyoxyethylene sorbitan monostearate (Tween 60), 0.2% (w/w) polyoxyethylene sorbitan monooleate (Tween 80), 0.05% (w/w) methylhydroxyethyl-cellulose (MHEC), 0.03% (w/w) anti-foaming agent, 0.02% (w/w) xanthan gum, 0.02% (w/w) citric acid, 0.01% (w/w) lactic acid and 0.01% potassium sorbate. A composition without natamycin or fenpiclonil was used as control.
# The treated sweet peppers were incubated in a closed box in the dark at 20° C. and assessed on mould growth during incubation. The antifungal activity (in %) of the individual and combined active ingredients was determined by calculating the reduction in mould growth observed on the sweet peppers treated with the antifungal composition in comparison to the mould growth on the sweet peppers treated with the control composition according to the Colby method (Colby, 1967) as described in Example 5.
# [3] = 250 ppm natamycin, 100 ppm fludioxonil or both, 26-27 days
# [4] = 250 ppm natamycin, 100 ppm fludioxonil or both, 19 days
# [5] = 250 ppm natamycin, 100 ppm fludioxonil or both, 20 days
# [6] = 250 ppm natamycin, 100 ppm fludioxonil or both, 21 days
# [7] = 250 ppm natamycin, 100 ppm fludioxonil or both, 22 days
# [8] = 250 ppm natamycin, 100 ppm fludioxonil or both, 23 days
# [9] = 250 ppm natamycin, 100 ppm fludioxonil or both, 25 days
# [10] = 250 ppm natamycin, 100 ppm fludioxonil or both, Day 14-18
# [11] = 250 ppm natamycin, 100 ppm fludioxonil or both, Day 19-22
# [12] = 250 ppm natamycin, 100 ppm fludioxonil or both, Day 23-27
# [13] = 500 ppm natamycin, 300 ppm fludioxonil or both, 22-27 days
# [14] = 500 ppm natamycin, 300 ppm fludioxonil or both, 18 days
# [15] = 500 ppm natamycin, 300 ppm fludioxonil or both, 19 days
# [16] = 500 ppm natamycin, 300 ppm fludioxonil or both, 20 days
# [17] = 500 ppm natamycin, 300 ppm fludioxonil or both, 21 days
# [18] = 500 ppm natamycin, 300 ppm fludioxonil or both, Day 18-27
Structure (SMILES),"Observed antifungal activity O (%) [1, 3]","Observed antifungal activity O (%) [1, 4]","Observed antifungal activity O (%) [1, 5]","Observed antifungal activity O (%) [1, 6]","Observed antifungal activity O (%) [1, 7]","Observed antifungal activity O (%) [1, 8]","Observed antifungal activity O (%) [1, 9]","Number of moulded oranges/total number of 8 oranges [1, 10]","Number of moulded oranges/total number of 8 oranges [1, 11]","Number of moulded oranges/total number of 8 oranges [1, 12]","Observed antifungal activity O (%) [1, 13]","Observed antifungal activity O (%) [1, 14]","Observed antifungal activity O (%) [1, 15]","Observed antifungal activity O (%) [1, 16]","Observed antifungal activity O (%) [1, 17]","Number of moulded oranges/total number of 8 oranges [1, 18]",further results
"N#Cc1c[nH]cc1-c1cccc2c1OC(F)(F)O2 [Fludioxonil, fludioxonil]",0%,9%,2%,0%,0%,0%,0%,8/8,8/8,8/8,17%,17%,17%,17%,17%,7 and 7/8,"moulded oranges of the 8 oranges ([1]; 250 ppm natamycin, 100 ppm fludioxonil or both, after 14 through 27 days of incubation): 8"
"C[C@@H]1C/C=C/C=C/C=C/C=C/[C@H](O[C@@H]2O[C@H](C)[C@@H](O)[C@H](N)[C@@H]2O)C[C@@H]2O[C@](O)(C[C@@H](O)C[C@H]3O[C@@H]3/C=C/C(=O)O1)C[C@H](O)[C@H]2C(=O)O [Natamycin, natamycin]",17%,36%,34%,32%,29%,25%,19%,6/8,7/8,7/8,14%,32%,29%,20%,16%,6 and 6/8,"Observed antifungal activity O (%) ([1]; 500 ppm natamycin, 400 ppm fenpiclonil or both, 22-23 days): 14%; Observed antifungal activity O (%) ([1]; 500 ppm natamycin, 400 ppm fenpiclonil or both, 12 days): 55%; Observed antifungal activity O (%) ([1]; 500 ppm natamycin, 400 ppm fenpiclonil or both, 13 days): 52%; Observed antifungal activity O (%) ([1]; 500 ppm natamycin, 400 ppm fenpiclonil or both, 14 days): 48%; Observed antifungal activity O (%) ([1]; 500 ppm natamycin, 400 ppm fenpiclonil or both, 15 days): 45%; Observed antifungal activity O (%) ([1]; 500 ppm natamycin, 400 ppm fenpiclonil or both, 16 days): 43%; Observed antifungal activity O (%) ([1]; 500 ppm natamycin, 400 ppm fenpiclonil or both, 18 days): 32%; Observed antifungal activity O (%) ([1]; 500 ppm natamycin, 400 ppm fenpiclonil or both, 19 days): 29%; Observed antifungal activity O (%) ([1]; 500 ppm natamycin, 400 ppm fenpiclonil or both, 20 days): 20%; Observed antifungal activity O (%) ([1]; 500 ppm natamycin, 400 ppm fenpiclonil or both, 21 days): 16%; Number of moulded oranges/total number of 8 oranges ([1]; 500 ppm natamycin, 400 ppm fenpiclonil or both, Day 14-15): 5 and 5/8; Number of moulded oranges/total number of 8 oranges ([1]; 500 ppm natamycin, 400 ppm fenpiclonil or both, Day 16): 5/8; Number of moulded oranges/total number of 8 oranges ([1]; 500 ppm natamycin, 400 ppm fenpiclonil or both, Day 18): 6/8; Number of moulded oranges/total number of 8 oranges ([1]; 500 ppm natamycin, 400 ppm fenpiclonil or both, Day 19-23): 6/8; Observed antifungal activity O (%) ([2]; 47 days): 15%; Observed antifungal activity O (%) ([2]; 48 days): 6%; Observed antifungal activity O (%) ([2]; 49 days): 4%; Observed antifungal activity O (%) ([2]; 50 days): 3%"
